Experiments:
[1] = system: OCI-Ly3; experiment: Cell proliferation assay, OCI-Ly3 (ABC-DLBCL); format: cell-based; details: Homo sapiens, 48 hours of treatment, Table 3
Procedure: (§1) Cell proliferation was analyzed after 48 hours of in vitro treatment using the CellTiter 96 Aqueous One Solution Cell Proliferation Assay (Promega, Madison, Wis.). This is a colorimetric method for determining the number of viable cells in proliferation.
(§2) For the assay, suspension cells were cultured by triplicate at a density of 1×10^6 cells/ml in 96-well plates (100.000 cells/well, 100 μl/well), except for OCILY-3 and OCILY-10 cell lines which were cultured at a density of 0.5×10^6 cells/ml (50.000 cells/well, 100 μl/well) and for HepG2, Hep3B and PLC/PRF/5 cell ines which were cultured at a density of 3000 cells/well, 100 μl/well). Adherent cells were obtained from 80-90% confluent flasks and 100 μl of cells were seeded at a density of 5000 cells/well in 96-well plates by triplicate. Before addition of the compounds, adherent cells were allowed to attach to the bottom of the wells for 12 hours. In all cases, only the 60 inner wells were used to avoid any border effects.
(§3) After 48 hours of treatment, plates with suspension cells were centrifuged at 800 g for 10 minutes and medium was removed. The plates with adherent cells were flicked to remove medium. Then, cells were incubated with 100 ul/well of medium and 20 ul/well of CellTiter 96 Aqueous One Solution reagent. After 1-3 hours of incubation at 37° C., absorbance was measured at 490 nm in a 96-well plate reader. The background absorbance was measured in wells with only cell line medium and solution reagent. Data was calculated as a percentage of total absorbance of treated cell/absorbance of non treated cells.

[2] = system: HepG2; experiment: Cell proliferation assay, HepG2 (HCC); format: cell-based; details: Homo sapiens, 48 hours of treatment, Table 3
Procedure: as §1, §2, §3

[3] = system: PLC/PRF/5; experiment: Cell proliferation assay, PLC/PRF/5 (HCC); format: cell-based; details: Homo sapiens, 48 hours of treatment, Table 3
Procedure: as §1, §2, §3

[4] = system: Hep3B; experiment: Cell proliferation assay, Hep3B (HCC); format: cell-based; details: Homo sapiens, 48 hours of treatment, Table 3
Procedure: as §1, §2, §3

[5] = biological target: DNMT1 (Homo sapiens, UniProt P26358); experiment: DNMT1 enzyme activity assay (TR-FRET, EPIgeneous methyltransferase assay); format: biochemical
Procedure: The biochemical assay to measure DNMT1 enzyme activity relies on time-resolved fluorescence energy transfer (TR-FRET) between lumi4-Tb (donor) and d2 (acceptor) using the EPIgeneous methyltransferase assay (CisBio Cat#62SAHPEB). […] TR-FRET signal is inversely proportional to the concentration of SAH, product of DNMT1 enzyme activity, in the sample.
The human DNMT1 was obtained from Reaction Biology Corp. (Cat# DMT-21-124). […] Final percentage of DMSO was 0.5%. • 2 μl of 1 nM DNMT1 enzyme diluted in assay buffer.
(§4) For each well, fluorescence was measured at 620 nm and 665 nm. A ratio (665 nm/620 nm) was then calculated in order to minimize medium interferences. Positive control was obtained in the presence of the vehicle of the compounds. Negative control was obtained in the absence of G9a enzyme activity. Calculated IC50 values were determined using GraphPrism using 4-parameters inhibition curve.

[6] = system: CEMO-1; experiment: Cell proliferation assay, CEMO-1 (ALL); format: cell-based, human; details: Homo sapiens; 48 hours of treatment; Table 3
Procedure: as §1, §2, §3

[7] = system: OCI-Ly10; experiment: Cell proliferation assay, OCI-Ly10 (ABC-DLBCL); format: cell-based; details: Homo sapiens, 48 hours of treatment, Table 3
Procedure: as §1, §2, §3

[8] = biological target: T1, human G9a enzyme (Homo sapiens, UniProt Q96KQ7); experiment: G9a enzyme activity assay (TR-FRET); format: biochemical
T1 sequence (Q96KQ7 1-1210): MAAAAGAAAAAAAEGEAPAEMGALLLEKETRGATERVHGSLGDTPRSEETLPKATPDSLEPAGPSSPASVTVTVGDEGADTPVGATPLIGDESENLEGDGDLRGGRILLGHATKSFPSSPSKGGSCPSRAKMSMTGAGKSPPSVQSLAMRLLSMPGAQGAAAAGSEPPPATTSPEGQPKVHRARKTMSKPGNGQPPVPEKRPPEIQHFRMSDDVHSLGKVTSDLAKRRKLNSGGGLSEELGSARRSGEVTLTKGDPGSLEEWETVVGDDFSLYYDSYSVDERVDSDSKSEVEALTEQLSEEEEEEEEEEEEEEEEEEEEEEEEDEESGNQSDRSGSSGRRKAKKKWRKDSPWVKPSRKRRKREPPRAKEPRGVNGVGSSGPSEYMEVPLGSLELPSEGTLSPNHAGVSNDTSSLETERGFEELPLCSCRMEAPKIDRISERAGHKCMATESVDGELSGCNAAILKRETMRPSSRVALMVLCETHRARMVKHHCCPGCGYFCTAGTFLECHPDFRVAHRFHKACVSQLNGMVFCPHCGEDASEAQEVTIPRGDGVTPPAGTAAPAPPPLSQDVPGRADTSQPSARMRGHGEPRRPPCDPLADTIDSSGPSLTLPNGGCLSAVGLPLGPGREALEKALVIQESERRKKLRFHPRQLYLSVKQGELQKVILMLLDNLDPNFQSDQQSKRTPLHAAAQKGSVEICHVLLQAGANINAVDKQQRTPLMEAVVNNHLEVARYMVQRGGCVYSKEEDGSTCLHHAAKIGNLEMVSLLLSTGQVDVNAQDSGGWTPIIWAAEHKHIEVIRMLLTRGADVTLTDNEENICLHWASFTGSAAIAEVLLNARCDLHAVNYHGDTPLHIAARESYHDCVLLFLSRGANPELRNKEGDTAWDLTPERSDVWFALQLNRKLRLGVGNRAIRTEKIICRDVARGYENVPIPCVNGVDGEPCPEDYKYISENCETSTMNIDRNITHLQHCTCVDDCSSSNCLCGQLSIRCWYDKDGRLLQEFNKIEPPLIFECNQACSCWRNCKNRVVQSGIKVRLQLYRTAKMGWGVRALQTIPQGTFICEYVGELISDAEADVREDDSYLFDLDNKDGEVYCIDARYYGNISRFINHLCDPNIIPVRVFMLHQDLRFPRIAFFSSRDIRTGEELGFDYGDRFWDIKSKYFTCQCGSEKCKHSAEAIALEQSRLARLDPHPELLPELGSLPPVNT
Procedure: The biochemical assay to measure G9a enzyme activity relies on time-resolved fluorescence energy transfer (TR-FRET) between europium cryptate (donor) and XL665 (acceptor). […] The human G9a enzyme expressed in a baculovirus infected Sf9 cell expression system was obtained from BPS Biosciences (Cat. #51001). […] Final percentage of DMSO was 0.5%. • 2 μl of 1 nM G9a enzyme diluted in assay buffer. […] Final concentration 150 nM. • Then, add 5 μl of streptavidin XL665 beads. Final concentration of 16 μM. • Read the plate after 1 hour of incubation at room temperature.
as §4

[9] = system: LAL-CUN-2; experiment: Cell proliferation assay, LAL-CUN-2 (ALL); format: cell-based; details: 48 hours of treatment; Table 3
Procedure: as §1, §2, §3

Sequence of DNMT1 (P26358 whole entry): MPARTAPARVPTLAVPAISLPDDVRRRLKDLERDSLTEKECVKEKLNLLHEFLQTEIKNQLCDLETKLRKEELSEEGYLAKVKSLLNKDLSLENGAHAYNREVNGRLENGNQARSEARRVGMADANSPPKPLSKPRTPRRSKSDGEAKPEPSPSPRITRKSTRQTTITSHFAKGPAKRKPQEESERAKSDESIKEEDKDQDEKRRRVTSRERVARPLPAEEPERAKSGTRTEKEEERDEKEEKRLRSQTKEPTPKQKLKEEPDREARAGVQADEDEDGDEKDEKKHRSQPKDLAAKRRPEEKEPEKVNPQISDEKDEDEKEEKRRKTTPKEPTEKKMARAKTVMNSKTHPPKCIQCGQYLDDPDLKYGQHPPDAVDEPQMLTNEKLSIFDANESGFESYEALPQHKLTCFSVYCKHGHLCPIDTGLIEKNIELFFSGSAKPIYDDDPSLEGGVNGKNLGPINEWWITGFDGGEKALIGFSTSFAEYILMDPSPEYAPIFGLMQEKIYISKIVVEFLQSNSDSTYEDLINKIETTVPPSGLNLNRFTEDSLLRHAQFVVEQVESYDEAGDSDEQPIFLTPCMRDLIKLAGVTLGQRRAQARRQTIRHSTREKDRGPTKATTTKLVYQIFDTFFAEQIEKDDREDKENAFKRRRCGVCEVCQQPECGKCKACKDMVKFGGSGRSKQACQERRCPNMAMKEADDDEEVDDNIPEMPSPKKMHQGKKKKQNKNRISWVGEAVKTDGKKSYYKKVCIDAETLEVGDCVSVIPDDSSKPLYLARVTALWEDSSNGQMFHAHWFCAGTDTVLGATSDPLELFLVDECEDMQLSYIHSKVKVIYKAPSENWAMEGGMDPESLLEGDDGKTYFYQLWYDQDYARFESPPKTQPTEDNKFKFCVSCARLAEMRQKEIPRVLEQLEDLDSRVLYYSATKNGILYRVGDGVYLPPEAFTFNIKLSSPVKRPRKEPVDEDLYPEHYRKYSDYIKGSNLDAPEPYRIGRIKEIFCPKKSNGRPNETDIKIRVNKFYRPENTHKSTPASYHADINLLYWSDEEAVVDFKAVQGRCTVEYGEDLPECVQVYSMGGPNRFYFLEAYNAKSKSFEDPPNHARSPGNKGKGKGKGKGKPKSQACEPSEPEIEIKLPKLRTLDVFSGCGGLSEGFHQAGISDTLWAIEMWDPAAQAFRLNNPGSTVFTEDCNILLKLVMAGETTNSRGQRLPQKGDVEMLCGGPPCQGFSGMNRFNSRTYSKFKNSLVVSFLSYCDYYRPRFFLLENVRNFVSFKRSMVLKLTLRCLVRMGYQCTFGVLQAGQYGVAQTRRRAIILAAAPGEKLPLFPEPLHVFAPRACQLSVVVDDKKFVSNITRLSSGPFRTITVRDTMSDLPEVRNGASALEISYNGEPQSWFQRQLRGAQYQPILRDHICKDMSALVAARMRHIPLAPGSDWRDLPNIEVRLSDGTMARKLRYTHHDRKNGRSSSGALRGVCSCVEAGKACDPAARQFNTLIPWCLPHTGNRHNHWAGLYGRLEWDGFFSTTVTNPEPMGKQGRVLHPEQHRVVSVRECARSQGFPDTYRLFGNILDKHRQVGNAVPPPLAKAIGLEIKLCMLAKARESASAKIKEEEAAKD

SMILES | GI50 [1] [µM] | GI50 [2] [µM] | GI50 [3] [µM] | GI50 [4] [µM] | IC50 [5] [µM] | GI50 [6] [µM] | GI50 [7] [µM] | IC50 [8] [µM] | GI50 [9] [µM]
COc1cc2c(NC3CC4(CCN(C)CC4)C3)cc(-c3ccc(C)o3)nc2cc1OCCCN1CCCC1 [Compound 5-02] | 0.1 to 1 | 1 to 10 | 1 to 10 | 1 to 10 | – | – | – | – | –
CCc1ccc(-c2cc(NCC3CCN(C4CC4)CC3)c3cc(OC)c(OCCCN4CCCC4)cc3n2)o1 [Compound 3-49] | < 0.1 | 0.1 to 1 | 0.1 to 1 | 0.1 to 1 | 0.1 to 0.5 | 0.1 to 1 | 0.1 to 1 | 0.1 to 0.5 | –
CCc1ccc(-c2cc(NC3CCN(C)CC3)c3cc(OC)c(OCCCN4CCCC4)cc3n2)o1 [Compound 3-41] | – | 0.1 to 1 | 0.1 to 1 | 0.1 to 1 | – | – | – | – | 0.1 to 1
CCc1ccc(-c2cc(NC3CC4CCC(C3)N4C)c3cc(OC)c(OCCCN4CCCC4)cc3n2)o1 (stereo not drawn) [Compound 3-50] | 0.1 to 1 | 1 to 10 | 0.1 to 1 | 1 to 10 | 0.1 to 0.5 | 0.1 to 1 | 1 to 10 | < 0.1 | –
COc1cc2c(NC3CCN(C)CC3)cc(-c3ccc(C)[nH]3)nc2cc1OCC1CCNCC1 [Compound 11-05] | – | ≤ 10 | ≤ 10 | ≤ 10 | 0.1 to 0.5 | ≤ 10 | – | < 0.1 | –
COc1cc2c(NC3CCN(C)CC3)cc(-c3ccc4occc4c3)nc2cc1OCCCN1CCCC1 [Compound 3-28] | – | – | – | – | 0.5 to 1 | 1 to 10 | < 0.1 | < 0.1 | –
COc1cc2c(NC3CC4(CCN(C)C4)C3)cc(-c3ccc(C)o3)nc2cc1OCCCN1CCCC1 (stereo not drawn) [Compound 5-03] | 0.1 to 1 | – | – | – | – | – | – | – | 1 to 10
CNC(=O)CCNc1cc(-c2ccc(C)o2)nc2cc(OCCCN3CCCC3)c(OC)cc12 [Compound 3-19] | 0.1 to 1 | ≤ 10 | 1 to 10 | 1 to 10 | – | 1 to 10 | 0.1 to 1 | – | –
COc1cc2c(NC3CC4(CCN(C)CC4)C3)cc(-c3ccc(C)o3)nc2cc1OCC1CCN(C)CC1 [Compound 12-03] | < 0.1 | 0.1 to 1 | 0.1 to 1 | 0.1 to 1 | – | – | – | – | –
COc1cc2c(NC3CCN(C)CC3)cc(-c3ccc(C)o3)nc2cc1OC1CC2(C1)CN(C)C2 [Compound 17-01, 6-methoxy-7-[(2-methyl-2-azaspiro[3.3]heptan-6-yl)oxy]-2-(5-methyl-2-furyl)-N-(1-methyl-4-piperidyl)quinolin-4-amine; 2,2,2-trifluoroacetic acid] | < 0.1 | 0.1 to 1 | 0.1 to 1 | 0.1 to 1 | – | – | – | – | –
CCc1ccc(-c2cc(NCC3CCN(C)CC3)c3cc(OC)c(OCCCN4CCCC4)cc3n2)o1 [Compound 3-42] | 0.1 to 1 | < 0.1 | 0.1 to 1 | 0.1 to 1 | – | – | – | – | 0.1 to 1
COc1cc2c(NC3CCN(C)CC3)cc(-c3ccc(C)o3)nc2cc1OCC1CCNCC1 [Compound 11-01, 6-methoxy-2-(5-methyl-2-furyl)-N-(1-methyl-4-piperidyl)-7-(4-piperidylmethoxy)quinolin-4-amine; 2,2,2-trifluoroacetic acid] | < 0.1 | 1 to 10 | 1 to 10 | 1 to 10 | – | – | – | – | –
COc1cc2c(NC3CCN(C)CC3)cc(C3=CCCCC3)nc2cc1OCCCN1CCCC1 [Compound 6-01, 2-(cyclohexen-1-yl)-6-methoxy-N-(1-methyl-4-piperidyl)-7-(3-pyrrolidin-1-ylpropoxy)quinolin-4-amine; 2,2,2-trifluoroacetic acid] | – | – | – | – | 0.1 to 0.5 | 1 to 10 | – | < 0.1 | 1 to 10
COc1cc2c(NC3CCN(C)CC3)cc(-c3ccc(C)o3)nc2cc1OC1CCN(C)CC1 [Compound 12-02] | 0.1 to 1 | 1 to 10 | 1 to 10 | 1 to 10 | – | 0.1 to 1 | 0.1 to 1 | – | –
COc1cc2c(NC3CCCC3)cc(C)nc2cc1OCCCN1CCCC1 [Compound 3-24] | – | – | – | – | 1 to 10 | – | 1 to 10 | < 0.1 | –
COc1cc2c(NC3CCC34CCN(C)C4)cc(-c3ccc(C)o3)nc2cc1OCCCN1CCCC1 (stereo not drawn) [Compound 5-04] | 0.1 to 1 | – | – | – | – | – | – | – | 1 to 10
CCc1ccc(-c2cc(NC3CCC34CCN(C)CC4)c3cc(OC)c(OCCCN4CCCC4)cc3n2)o1 (stereo not drawn) [Compound 5-07, 2-(5-ethyl-2-furyl)-6-methoxy-N-(7-methyl-7-azaspiro[3.5]nonan-3-yl)-7-(3-pyrrolidin-1-ylpropoxy)quinolin-4-amine; 2,2,2-trifluoroacetic acid] | < 0.1 | 0.1 to 1 | 0.1 to 1 | 0.1 to 1 | – | – | – | – | –
